Data on 32 compounds can be found in patent US20250382273A1 (INSTITUT NATIONAL DE LA SANTE ET DE LA RECHERCHE MEDICALE, priority 2022, published 2025).

Bounds are passed on as bounds.

For the first assay, the system named is M. tuberculosis H37Rv_DdnL49P_gfp. Format: cell-based, Mycobacterium tuberculosis. Particulars: in combination with pretomanid, unit inferred; read-out: average EC50 H37Rv_DdnL49P_gfp.
For `O=C(Nc1nc2ccc(Oc3ccnc(C(F)(F)F)c3)cc2s1)[C@@H]1C2C=CC(C2)[C@@H]1C(=O)O` (some centres unmarked) [Example 32, 3-[[6-[[2-(trifluoromethyl)-4-pyridyl]oxy]-1,3-benzothiazol-2-yl]carbamoyl]bicyclo[2.2.1]hept-5-ene-2-carboxylic acid], the concentration giving a half-maximal response (EC50) was found to be 320 nM.

Take `O=C1[C@@H]2[C@H](C(=O)N1c1nc3ccc(Oc4ccc(C(F)(F)F)cn4)cc3s1)[C@@H]1C=C[C@H]2C1` [Example 36, (1R,2S,6R,7S)-4-[6-[[5-(trifluoromethyl)-2-pyridyl]oxy]-1,3-benzothiazol-2-yl]-4-azatricyclo[5.2.1.02,6]dec-8-ene-3,5-dione]: the concentration giving a half-maximal response (EC50) is 490 nM.

Regarding `O=C(Nc1nc2ccc(Oc3ccc(F)cc3)cc2s1)[C@@H]1C2C=CC(C2)[C@@H]1C(=O)O` (some centres unmarked) [Example 21, 3-[[6-(4-fluorophenoxy)-1,3-benzothiazol-2-yl]carbamoyl]bicyclo[2.2.1]hept-5-ene-2-carboxylic acid], the EC50 was determined as 400 nM.

The same assay, now with this note: read-out: EC50 H37Rv_DdnL49P_gfp.
In the case of `O=C1[C@@H]2[C@H](C(=O)N1c1nc3ccc(Oc4cccc(C(F)(F)F)n4)cc3s1)[C@@H]1C=C[C@H]2C1` [Example 34, (1R,2S,6R,7S)-4-[6-[[6-(trifluoromethyl)-2-pyridyl]oxy]-1,3-benzothiazol-2-yl]-4-azatricyclo[5.2.1.02,6]dec-8-ene-3,5-dione], the concentration giving a half-maximal response (EC50) lay in the range of 1000 to 5000 nM.

Take `O=C(Nc1nc2ccc(Nc3ccc(OC(F)(F)F)cn3)cc2s1)[C@@H]1C2C=CC(C2)[C@@H]1C(=O)O` (some centres unmarked) [Example 93, 3-[[6-[[5-(trifluoromethoxy)-2-pyridyl]amino]-1,3-benzothiazol-2-yl]carbamoyl]bicyclo[2.2.1]hept-5-ene-2-carboxylic acid]: the concentration for a half-maximal effect (EC50) was below 1000 nM.

In the case of `O=C(Nc1nc2ccc(-c3ccncc3)cc2s1)[C@@H]1C2C=CC(C2)[C@@H]1C(=O)O` (some centres unmarked) [Example 64, 3-[[6-(4-pyridyl)-1,3-benzothiazol-2-yl]carbamoyl]bicyclo[2.2.1]hept-5-ene-2-carboxylic acid], the concentration giving a half-maximal response (EC50) was 5000 to 10000 nM.

Regarding `CCc1ccc2nc(NC(=O)[C@@H]3C4C=CC(C4)[C@@H]3C(=O)O)sc2c1` (some centres unmarked) [Example 11, 3-[(6-ethyl-1,3-benzothiazol-2-yl)carbamoyl]bicyclo[2.2.1]hept-5-ene-2-carboxylic acid], the EC50 lay within 1000 to 5000 nM.

As to `O=C(Nc1nc2ccc(I)cc2s1)[C@@H]1C2C=CC(C2)[C@@H]1C(=O)O` (some centres unmarked) [Example 49, 3-[(6-iodo-1,3-benzothiazol-2-yl)carbamoyl]bicyclo[2.2.1]hept-5-ene-2-carboxylic acid], the EC50 lay in the range of 1000 to 5000 nM.

On to `C#CCOc1ccc(-c2ccc3nc(N4C(=O)[C@@H]5[C@H](C4=O)[C@@H]4C=C[C@H]5C4)sc3c2)cc1` [Example 71, (1R,2S,6R,7S)-4-[6-(4-prop-2-ynoxyphenyl)-1,3-benzothiazol-2-yl]-4-azatricyclo[5.2.1.02,6]dec-8-ene-3,5-dione], for which the concentration giving a half-maximal response (EC50) is below 1000 nM.

Turning to `O=C(Nc1nc2ccc(-c3ccc(OC(F)(F)F)cc3)cc2s1)[C@@H]1C2C=CC(C2)[C@@H]1C(=O)O` (some centres unmarked) [Example 62, 3-[[6-[4-(trifluoromethoxy)phenyl]-1,3-benzothiazol-2-yl]carbamoyl]bicyclo[2.2.1]hept-5-ene-2-carboxylic acid], the EC50 is below 1000 nM.

Consider `O=C(O)C1C2C=CC(C2)C1C(=O)Nc1nc2ccc([N+](=O)[O-])cc2s1` (centres unmarked) [Example 38, 3-[(6-nitro-1,3-benzothiazol-2-yl)carbamoyl]bicyclo[2.2.1]hept-5-ene-2-carboxylic acid], for which the EC50 fell in the range of 5000 to 10000 nM.

Consider `O=C(Nc1nc2ccc(Oc3ccnc(C(F)(F)F)c3)cc2s1)[C@@H]1C2C=CC(C2)[C@@H]1C(=O)O` (some centres unmarked) [Example 32, 3-[[6-[[2-(trifluoromethyl)-4-pyridyl]oxy]-1,3-benzothiazol-2-yl]carbamoyl]bicyclo[2.2.1]hept-5-ene-2-carboxylic acid], for which the EC50 is below 1000 nM.

Consider `Cc1ccc2nc(NC(=O)[C@@H]3C4CCC(C4)[C@@H]3C(=O)O)sc2c1` (stereo in doubt) [Example 3, 3-[(6-methyl-1,3-benzothiazol-2-yl)carbamoyl]norbornane-2-carboxylic acid], for which the concentration giving a half-maximal response (EC50) is 1000 to 5000 nM.

As to `C#CCOc1cccc2sc(NC(=O)[C@@H]3C4C=CC(C4)[C@@H]3C(=O)O)nc12` (some centres unmarked) [Example 75, 3-[(4-prop-2-ynoxy-1,3-benzothiazol-2-yl)carbamoyl]bicyclo[2.2.1]hept-5-ene-2-carboxylic acid], the EC50 was in the range of 1000 to 5000 nM.

Regarding `O=C(Nc1nc2ccc(C#CC3CC3)cc2s1)[C@@H]1C2C=CC(C2)[C@@H]1C(=O)O` (some centres unmarked) [Example 79, 3-[[6-(2-cyclopropylethynyl)-1,3-benzothiazol-2-yl]carbamoyl]bicyclo[2.2.1]hept-5-ene-2-carboxylic acid], the concentration giving a half-maximal response (EC50) is below 1000 nM.

On to `O=C1[C@@H]2[C@H](C(=O)N1c1nc3ccc(Oc4ccc(C(F)(F)F)cn4)cc3s1)[C@@H]1C=C[C@H]2C1` [Example 36, (1R,2S,6R,7S)-4-[6-[[5-(trifluoromethyl)-2-pyridyl]oxy]-1,3-benzothiazol-2-yl]-4-azatricyclo[5.2.1.02,6]dec-8-ene-3,5-dione], for which the half-maximal effective concentration (EC50) is below 1000 nM.

In the case of `O=C1[C@@H]2C3C=CC(C3)[C@@H]2C(=O)N1c1nc2ccc(Nc3ccc(C(F)(F)F)cn3)cc2s1` [Example 95], the EC50 was below 1000 nM.

With `O=C1C2C3C=CC(C3)C2C(=O)N1c1nc2ccc(-c3ccccc3C(F)(F)F)cc2s1` [Example 58, (1R,2S,6R,7S)-4-[6-[[2-(trifluoromethyl)phenyl]-1,3-benzothiazol-2-yl]-4-azatricyclo [5.2.1.02,6]dec-8-ene-3,5-dione], the half-maximal effective concentration (EC50) was in the range of 10000 to 20000 nM.

As for `O=C1[C@@H]2[C@H](C(=O)N1c1nc3ccc(-c4ccsc4)cc3s1)[C@@H]1C=C[C@H]2C1` [Example 68, (1R,2S,6R,7S)-4-[6-(3-thienyl)-1,3-benzothiazol-2-yl]-4-azatricyclo[5.2.1.02,6]dec-8-ene-3,5-dione], the half-maximal effective concentration (EC50) lay in the range of 1000 to 5000 nM.

In the case of `O=C1[C@@H]2[C@H](C(=O)N1c1nc3ccc(-c4ccc(C(F)(F)F)nc4)cc3s1)[C@@H]1C=C[C@H]2C1` [Example 67, (1R,2S,6R,7S)-4-[6-[6-(trifluoromethyl)-3-pyridyl]-1,3-benzothiazol-2-yl]-4-azatricyclo [5.2.1.02,6]dec-8-ene-3,5-dione], the concentration for a half-maximal effect (EC50) fell in the range of 1000 to 5000 nM.

On to `CCOc1ccc2nc(N3C(=O)[C@@H]4[C@H](C3=O)[C@@H]3C=C[C@H]4C3)sc2c1` [Example 8, (1R,2S,6R,7S)-4-(6-ethoxy-1,3-benzothiazol-2-yl)-4-azatricyclo[5.2.1.02,6]dec-8-ene-3,5-dione], for which the concentration giving a half-maximal response (EC50) was in the range of 1000 to 5000 nM.

Regarding `O=C(Nc1nc2ccc(OC(F)(F)F)cc2s1)[C@@H]1C2C=CC(C2)[C@@H]1C(=O)O` (some centres unmarked) [Example 44, 3-[[6-(trifluoromethoxy)-1,3-benzothiazol-2-yl]carbamoyl]bicyclo[2.2.1]hept-5-ene-2-carboxylic acid], the EC50 lay within 1000 to 5000 nM.

For `Cc1cc(C)c2nc(NC(=O)[C@@H]3C4C=CC(C4)[C@@H]3C(=O)O)sc2c1` (some centres unmarked) [Example 13, 3-[(4,6-dimethyl-1,3-benzothiazol-2-yl)carbamoyl]bicyclo[2.2.1]hept-5-ene-2-carboxylic acid], the concentration for a half-maximal effect (EC50) was in the range of 1000 to 5000 nM.

Take `O=C(Nc1nc2ccc(-c3ccc4ncccc4c3)cc2s1)[C@@H]1C2C=CC(C2)[C@@H]1C(=O)O` (some centres unmarked) [Example 81, 3-[[6-(6-quinolyl)-1,3-benzothiazol-2-yl]carbamoyl]bicyclo[2.2.1]hept-5-ene-2-carboxylic acid]: the concentration for a half-maximal effect (EC50) fell in the range of 1000 to 5000 nM.

Turning to `CC(C)(C)c1ccc2nc(NC(=O)[C@@H]3C4C=CC(C4)[C@@H]3C(=O)O)sc2c1` (some centres unmarked) [Example 12, 3-[(6-tert-butyl-1,3-benzothiazol-2-yl)carbamoyl]bicyclo[2.2.1]hept-5-ene-2-carboxylic acid], the EC50 is below 1000 nM.

With `Cc1ccc2nc(NC(=O)[C@@H]3C4C=CC(C4)[C@@H]3C(=O)O)sc2c1` (mixture of isomers) [Example 1, 3-[(6-methyl-1,3-benzothiazol-2-yl)carbamoyl]bicyclo[2.2.1]hept-5-ene-2-carboxylic acid], the EC50 was 5000 to 10000 nM.

As to `O=C1[C@@H]2[C@H](C(=O)N1c1nc3ccc(Oc4ncccc4C(F)(F)F)cc3s1)[C@@H]1C=C[C@H]2C1` [Example 26, (1R,2S,6R,7S)-4-[6-[[3-(trifluoromethyl)-2-pyridyl]oxy]-1,3-benzothiazol-2-yl]-4-azatricyclo[5.2.1.02,6]dec-8-ene-3,5-dione], the 50% effective concentration (EC50) lay in the range of 1000 to 5000 nM.

On to `O=C(Nc1nc2ccc(-c3ccc(Cl)c(Cl)c3)cc2s1)[C@@H]1C2C=CC(C2)[C@@H]1C(=O)O` (some centres unmarked) [Example 56, 3-[[6-(3,4-dichlorophenyl)-1,3-benzothiazol-2-yl]carbamoyl]bicycle [2.2.1]hept-5-ene-2-carboxylic acid], for which the EC50 was 1000 to 5000 nM.

Turning to `O=C1[C@@H]2C3C=CC(C3)[C@@H]2C(=O)N1c1nc2ccc(Nc3cccc(C(F)(F)F)n3)cc2s1` [Example 97, 4-[6-[[6-(trifluoromethyl)-2-pyridyl]amino]-1,3-benzothiazol-2-yl]-4-azatricyclo[5.2.1.02,6]dec-8-ene-3,5-dione], the EC50 was below 1000 nM.

With `O=C(Nc1nc2ccc(C(F)(F)F)cc2s1)[C@@H]1C2C=CC(C2)[C@@H]1C(=O)O` (some centres unmarked) [Example 43, 3-[[6-(trifluoromethyl)-1,3-benzothiazol-2-yl]carbamoyl]bicyclo[2.2.1]hept-5-ene-2-carboxylic acid], the concentration for a half-maximal effect (EC50) fell in the range of 1000 to 5000 nM.

On to `O=C1[C@@H]2C3C=CC(C3)[C@@H]2C(=O)N1c1nc2ccc(Nc3ccnc(C(F)(F)F)c3)cc2s1` [Example 90, 4-[6-[[2-(trifluoromethyl)-4-pyridyl]amino]-1,3-benzothiazol-2-yl]-4-azatricyclo[5.2.1.02,6]dec-8-ene-3,5-dione], for which the EC50 is below 1000 nM.

Turning to `O=C(Nc1nc2ccc(Oc3ccc(F)cc3)cc2s1)[C@@H]1C2C=CC(C2)[C@@H]1C(=O)O` (some centres unmarked) [Example 21, 3-[[6-(4-fluorophenoxy)-1,3-benzothiazol-2-yl]carbamoyl]bicyclo[2.2.1]hept-5-ene-2-carboxylic acid], the concentration giving a half-maximal response (EC50) was below 1000 nM.

As to `O=C(Nc1nc2ccc(Nc3cc(F)ccn3)cc2s1)[C@@H]1C2C=CC(C2)[C@@H]1C(=O)O` (some centres unmarked) [Example 85, 3-[[6-[(4-fluoro-2-pyridyl)amino]-1,3-benzothiazol-2-yl]carbamoyl]bicyclo[2.2.1]hept-5-ene-2-carboxylic acid], the EC50 was below 1000 nM.

As for `O=C(Nc1nc2ccc(C#Cc3ccccc3)cc2s1)[C@@H]1C2C=CC(C2)[C@@H]1C(=O)O` (some centres unmarked) [Example 77, 3-[[6-(2-phenylethynyl)-1,3-benzothiazol-2-yl]carbamoyl]bicyclo[2.2.1]hept-5-ene-2-carboxylic acid], the concentration giving a half-maximal response (EC50) was below 1000 nM.

Turning to `O=C(Nc1nc2ccc(Oc3ccc(C(F)(F)F)cn3)cc2s1)[C@@H]1C2C=CC(C2)[C@@H]1C(=O)O` (some centres unmarked) [Example 35, 3-[[6-[[5-(trifluoromethyl)-2-pyridyl]oxy]-1,3-benzothiazol-2-yl]carbamoyl]bicyclo[2.2.1]hept-5-ene-2-carboxylic acid], the EC50 lay in the range of 1000 to 5000 nM.

Usually EC50 stands for the concentration that produces a half-maximal response.
